Laboratory results reported in US4339535A, “Process for preparing antibiotic EM 4940” (E. R. Squibb & Sons, Inc., priority 1980, dated 1982).
≈ marks a conversion by molar mass, not a printed value. Read-outs that look alike come from different tables or passages of the source.

Assays:
[1] = tested on: Acinetobacter calcoaceticus; assay: MIC aerobic screen, H-59 synthetic agar; conditions: read-out: Minimum Inhibitory Concentration
[2] = tested on: Klebsiella penumoniae; assay: MIC aerobic screen, H-59 synthetic agar; conditions: read-out: Minimum Inhibitory Concentration
[3] = tested on: Clostridium histolyticum; assay: MIC anaerobic screen; assay type: cell-based; conditions: Hathewaya histolytica, Table IV, strain 8572, read-out: Minimum Inhibitory Concentration
Description: (§1) The antibiotic is prepared as described above for the aerobic screen.
(§2) All organisms are maintained in a tube of chopped meat broth with glucose supplied by Scott Laboratories in Rhode Island. Two days prior to running the test 0.1 ml of the maintained culture is transferred to a fresh tube of chopped meat broth, and the tube is incubated at 37° C. for 48 hours. After 48 hours incubation each culture is assumed to have grown to 1×10^8 CFU/ml.
(§3) The organisms are stamped onto antibiotic containing agar plates (Mueller Hinton Agar BBL+5% whole sheep blood+0.2% lysed sheep blood) to give an inoculum level of 10^5 CFU.
(§4) After stamping, the plates are placed in an anaerobic gas pack system (BBL) and incubated at 37° C. for 18 hours.

[4] = tested on: Clostridium septicum; assay: MIC anaerobic screen; assay type: cell-based; conditions: Table IV, strain 1780, read-out: Minimum Inhibitory Concentration
Description: as §1, §2, §3, §4

[5] = tested on: Clostridium sporogenes; assay: MIC anaerobic screen; assay type: cell-based; conditions: Table IV, strain 2372, read-out: Minimum Inhibitory Concentration
Description: as §1, §2, §3, §4

[6] = tested on: Eubacterium lentum; assay: MIC anaerobic screen; assay type: cell-based; conditions: Eggerthella lenta, Table IV, strain 11,261, read-out: Minimum Inhibitory Concentration
Description: as §1, §2, §3, §4

[7] = tested on: Fusobacterium necrophorum; assay: MIC anaerobic screen; assay type: cell-based; conditions: Table IV, strain 11,338, read-out: Minimum Inhibitory Concentration
Description: as §1, §2, §3, §4

[8] = tested on: Staphylococcus aureus; assay: MIC aerobic screen, BA-2 agar; conditions: Staphylococcus aureus
[9] = tested on: Acinetobacter calcoaceticus; assay: MIC aerobic screen, BA-2 agar; conditions: Acinetobacter calcoaceticus, strain 8333
[10] = tested on: gram-positive and gram-negative bacteria, yeasts, fungi, acholeplasma, and the protozoan Trichomonas vaginalis; assay: biological activity, general statement; conditions: A form versus B form
[11] = tested on: Serratia marcescens; assay: MIC aerobic screen, BA-2 agar; conditions: Serratia marcescens
[12] = tested on: Enterobacter cloacae; assay: MIC aerobic screen, H-59 synthetic agar; conditions: read-out: Minimum Inhibitory Concentration
[13] = tested on: Pseudomonas aeruginosa; assay: MIC aerobic screen, H-59 synthetic agar
[14] = solubility; assay type: physicochemical
[15] = tested on: Klebsiella pneumoniae; assay: MIC aerobic screen, BA-2 agar

CC1(O)CC(C(N)=O)N=C1c1ncccc1O (stereo not drawn) [EM4940A, 2,4-trans-3,4-dihydro-4-hydroxy-5-(3-hydroxy-2-pyridinyl)-4-methyl-2H-pyrrole-2-carboxamide]
MIC [1]: 25 µg/mL (≈ 106 µM) | MIC [2]: 50 µg/mL (≈ 213 µM) | MIC [3]: 12.5 µg/mL (≈ 53.1 µM) | MIC [4]: 12.5 µg/mL (≈ 53.1 µM) | MIC [5]: 12.5 µg/mL (≈ 53.1 µM) | MIC [6]: 12.5 µg/mL (≈ 53.1 µM) | MIC [7]: 12.5 µg/mL (≈ 53.1 µM) | MIC ([8]; read-out: Minimum Inhibitory Concentration, Table I, BA-2 agar, strain 2400): > 100 µg/mL | MIC ([8]; read-out: Minimum Inhibitory Concentration, Table I, BA-2 agar, strain 10,165): 50 µg/mL (≈ 213 µM) | MIC ([8]; read-out: Minimum Inhibitory Concentration, Table I, BA-2 agar, strain 11,239): > 100 µg/mL | MIC ([8]; read-out: Minimum Inhibitory Concentration, Table II, additional tests, strain 2400): > 200 µg/mL | MIC ([8]; read-out: Minimum Inhibitory Concentration, Table II, additional tests, strain 2661): > 200 µg/mL | MIC ([8]; read-out: Minimum Inhibitory Concentration, Table II, additional tests, strain 10,165): 100 µg/mL (≈ 425 µM) | MIC ([8]; read-out: Minimum Inhibitory Concentration, Table II, additional tests, strain 11,239): 50 µg/mL (≈ 213 µM) | MIC ([9]; read-out: Minimum Inhibitory Concentration, Table I, BA-2 agar): 50 µg/mL (≈ 213 µM) | MIC ([9]; read-out: Minimum Inhibitory Concentration, Table II, additional tests): 100 µg/mL (≈ 425 µM) | biological activity of A form relative to B form [10]: more active than the B form | MIC ([11]; read-out: Minimum Inhibitory Concentration, Table I, BA-2 agar, strain 1111): > 100 µg/mL | MIC ([11]; read-out: Minimum Inhibitory Concentration, Table I, BA-2 agar, strain 9782): 100 µg/mL (≈ 425 µM) | MIC ([11]; read-out: Minimum Inhibitory Concentration, Table II, additional tests, strain 9782): 50 µg/mL (≈ 213 µM) | MIC ([11]; read-out: Minimum Inhibitory Concentration, Table II, additional tests, strain 11,111): 100 µg/mL (≈ 425 µM) | MIC [12]: 100 µg/mL (≈ 425 µM) | MIC ([13]; read-out: Minimum Inhibitory Concentration, Table III, H-59 agar, strain 8754): > 100 µg/mL | MIC ([13]; read-out: Minimum Inhibitory Concentration, Table III, H-59 agar, strain 9330): 50 µg/mL (≈ 213 µM) | MIC ([13]; read-out: Minimum Inhibitory Concentration, Table III, H-59 agar, strain 9545): 25 µg/mL (≈ 106 µM) | solubility ([14]; hexane): Insoluble | solubility ([14]; methanol, ethanol, ethyl acetate, acetone and chloroform): soluble | solubility ([14]; water): Insoluble | MIC ([15]; Klebsiella pneumoniae, read-out: Minimum Inhibitory Concentration): 50 µg/mL (≈ 213 µM) | Minimum Inhibitory Concentration ([15]; Table II, additional tests, strain 11,066): 50 µg/mL
